Results as given in ChEMBL document CHEMBL5465560, “Selectivity Literature for EUbOPEN Chemogenomic Library” (2024).

Assays:
[1] = target: T1, Mitogen-activated protein kinase kinase kinase 3 (Homo sapiens) (UniProt Q99759); assay: Selectivity interaction (KinomeScan (DiscoverX)) EUB0000229b MAP3K3; conditions: at 10 µM
T1 sequence (whole entry): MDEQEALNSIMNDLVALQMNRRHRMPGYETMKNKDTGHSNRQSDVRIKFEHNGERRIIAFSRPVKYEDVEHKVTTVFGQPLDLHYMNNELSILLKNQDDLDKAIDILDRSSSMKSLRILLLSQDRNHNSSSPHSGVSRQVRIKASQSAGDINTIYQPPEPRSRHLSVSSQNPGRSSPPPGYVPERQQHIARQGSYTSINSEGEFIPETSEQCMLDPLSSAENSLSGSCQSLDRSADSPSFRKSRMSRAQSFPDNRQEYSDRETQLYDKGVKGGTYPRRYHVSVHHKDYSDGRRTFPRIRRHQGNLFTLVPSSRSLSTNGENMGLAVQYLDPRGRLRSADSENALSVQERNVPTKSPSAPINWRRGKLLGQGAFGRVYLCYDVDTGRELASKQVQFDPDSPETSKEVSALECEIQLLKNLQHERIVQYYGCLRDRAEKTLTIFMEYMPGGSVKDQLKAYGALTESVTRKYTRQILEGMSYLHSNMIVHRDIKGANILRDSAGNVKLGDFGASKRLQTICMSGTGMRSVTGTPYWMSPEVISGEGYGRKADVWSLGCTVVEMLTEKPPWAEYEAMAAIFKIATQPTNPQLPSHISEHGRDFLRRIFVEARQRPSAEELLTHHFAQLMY

[2] = target: Activin receptor type-2A (Homo sapiens) (UniProt P27037); assay: Selectivity interaction (KinomeScan (DiscoverX)) EUB0000045b ACVR2A
[3] = target: T2, Serine/threonine-protein kinase 3 (Homo sapiens) (UniProt Q13188); assay: Selectivity interaction (KinomeScan (DiscoverX)) EUB0000695a STK3; conditions: at 100 nM
T2 sequence (whole entry): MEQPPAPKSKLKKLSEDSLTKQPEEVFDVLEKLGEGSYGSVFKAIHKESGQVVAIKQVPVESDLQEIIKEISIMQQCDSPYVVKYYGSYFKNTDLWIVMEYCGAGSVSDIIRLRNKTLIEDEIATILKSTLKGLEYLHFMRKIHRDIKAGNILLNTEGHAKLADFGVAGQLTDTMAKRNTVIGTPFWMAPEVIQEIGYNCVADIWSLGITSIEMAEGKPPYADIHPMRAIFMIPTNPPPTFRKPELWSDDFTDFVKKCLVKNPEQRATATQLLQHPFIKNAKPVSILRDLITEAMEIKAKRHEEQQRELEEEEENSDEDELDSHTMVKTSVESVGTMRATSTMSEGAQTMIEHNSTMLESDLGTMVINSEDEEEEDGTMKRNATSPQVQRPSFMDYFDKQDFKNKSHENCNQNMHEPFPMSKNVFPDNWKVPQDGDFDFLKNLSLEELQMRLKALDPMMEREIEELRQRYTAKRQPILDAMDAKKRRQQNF

[4] = target: T3, Tyrosine-protein kinase Tec (Homo sapiens) (UniProt P42680); assay: Selectivity interaction (KinomeScan (DiscoverX)) EUB0000666a TEC; conditions: at 10 µM
T3 sequence (whole entry): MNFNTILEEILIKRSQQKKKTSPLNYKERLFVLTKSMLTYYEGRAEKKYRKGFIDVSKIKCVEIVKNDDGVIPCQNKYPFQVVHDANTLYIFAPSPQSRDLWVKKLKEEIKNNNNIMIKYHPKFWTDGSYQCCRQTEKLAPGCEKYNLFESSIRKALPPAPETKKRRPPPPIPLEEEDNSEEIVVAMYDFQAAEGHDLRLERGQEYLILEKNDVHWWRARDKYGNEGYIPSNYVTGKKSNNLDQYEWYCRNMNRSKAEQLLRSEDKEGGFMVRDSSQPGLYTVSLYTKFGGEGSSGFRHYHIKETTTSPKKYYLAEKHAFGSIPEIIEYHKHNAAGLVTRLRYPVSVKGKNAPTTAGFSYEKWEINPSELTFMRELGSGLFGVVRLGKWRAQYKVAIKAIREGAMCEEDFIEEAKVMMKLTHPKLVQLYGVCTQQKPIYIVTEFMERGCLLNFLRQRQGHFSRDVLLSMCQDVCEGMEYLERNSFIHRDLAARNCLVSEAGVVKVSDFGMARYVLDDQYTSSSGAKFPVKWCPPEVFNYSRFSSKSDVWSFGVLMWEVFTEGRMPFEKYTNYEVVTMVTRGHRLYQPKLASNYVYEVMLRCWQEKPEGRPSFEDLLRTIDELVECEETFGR

[5] = target: T4, Ephrin type-B receptor 2 (Homo sapiens) (UniProt P29323); assay: Selectivity interaction (Upstate Kinase Profiler service (Millipore)) EUB0000056c EPHB2; conditions: at 1 µM
T4 sequence (whole entry): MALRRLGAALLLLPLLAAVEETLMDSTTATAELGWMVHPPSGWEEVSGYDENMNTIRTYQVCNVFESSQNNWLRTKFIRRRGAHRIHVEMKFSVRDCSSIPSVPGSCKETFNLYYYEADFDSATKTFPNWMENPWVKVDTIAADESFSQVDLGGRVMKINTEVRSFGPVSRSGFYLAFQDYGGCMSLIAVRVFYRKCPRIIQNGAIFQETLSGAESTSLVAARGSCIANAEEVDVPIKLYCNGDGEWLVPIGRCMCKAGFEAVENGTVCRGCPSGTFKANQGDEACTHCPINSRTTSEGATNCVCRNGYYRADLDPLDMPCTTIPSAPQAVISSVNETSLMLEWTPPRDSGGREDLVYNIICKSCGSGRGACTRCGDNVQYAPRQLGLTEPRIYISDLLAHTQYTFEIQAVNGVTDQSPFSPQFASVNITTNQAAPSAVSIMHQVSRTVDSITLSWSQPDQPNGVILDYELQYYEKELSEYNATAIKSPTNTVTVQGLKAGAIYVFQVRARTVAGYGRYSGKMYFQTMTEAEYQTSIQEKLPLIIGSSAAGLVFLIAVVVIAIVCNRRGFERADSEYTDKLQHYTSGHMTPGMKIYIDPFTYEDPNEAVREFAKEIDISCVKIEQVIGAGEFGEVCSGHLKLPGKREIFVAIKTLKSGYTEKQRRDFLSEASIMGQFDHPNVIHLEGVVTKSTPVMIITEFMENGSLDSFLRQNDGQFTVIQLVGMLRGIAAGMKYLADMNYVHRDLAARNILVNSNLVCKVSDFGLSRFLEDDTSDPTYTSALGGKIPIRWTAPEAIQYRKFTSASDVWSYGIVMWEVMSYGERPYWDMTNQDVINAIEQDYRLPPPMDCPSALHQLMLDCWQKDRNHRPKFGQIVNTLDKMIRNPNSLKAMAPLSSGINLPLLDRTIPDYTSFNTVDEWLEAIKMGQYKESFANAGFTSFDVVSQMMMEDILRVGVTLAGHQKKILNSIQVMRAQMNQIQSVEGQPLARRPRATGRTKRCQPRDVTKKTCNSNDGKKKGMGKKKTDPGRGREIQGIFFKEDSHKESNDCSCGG

[6] = target: Casein kinase I isoform delta (Homo sapiens, UniProt P48730); conditions: at 10 µM
Sequence of Casein kinase I isoform delta (P48730 whole entry, looked up, canonical isoform): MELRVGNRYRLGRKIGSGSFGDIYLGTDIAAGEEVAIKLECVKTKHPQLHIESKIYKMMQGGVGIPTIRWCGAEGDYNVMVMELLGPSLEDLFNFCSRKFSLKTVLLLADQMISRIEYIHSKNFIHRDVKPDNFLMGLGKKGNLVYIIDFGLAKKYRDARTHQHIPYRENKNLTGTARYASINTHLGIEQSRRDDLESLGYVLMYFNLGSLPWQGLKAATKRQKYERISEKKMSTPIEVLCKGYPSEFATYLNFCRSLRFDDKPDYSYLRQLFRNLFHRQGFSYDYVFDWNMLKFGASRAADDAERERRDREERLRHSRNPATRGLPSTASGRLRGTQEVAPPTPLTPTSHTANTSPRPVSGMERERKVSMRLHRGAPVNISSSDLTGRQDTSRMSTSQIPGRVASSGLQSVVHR

Sequence of Activin receptor type-2A (Homo sapiens) (P27037 whole entry): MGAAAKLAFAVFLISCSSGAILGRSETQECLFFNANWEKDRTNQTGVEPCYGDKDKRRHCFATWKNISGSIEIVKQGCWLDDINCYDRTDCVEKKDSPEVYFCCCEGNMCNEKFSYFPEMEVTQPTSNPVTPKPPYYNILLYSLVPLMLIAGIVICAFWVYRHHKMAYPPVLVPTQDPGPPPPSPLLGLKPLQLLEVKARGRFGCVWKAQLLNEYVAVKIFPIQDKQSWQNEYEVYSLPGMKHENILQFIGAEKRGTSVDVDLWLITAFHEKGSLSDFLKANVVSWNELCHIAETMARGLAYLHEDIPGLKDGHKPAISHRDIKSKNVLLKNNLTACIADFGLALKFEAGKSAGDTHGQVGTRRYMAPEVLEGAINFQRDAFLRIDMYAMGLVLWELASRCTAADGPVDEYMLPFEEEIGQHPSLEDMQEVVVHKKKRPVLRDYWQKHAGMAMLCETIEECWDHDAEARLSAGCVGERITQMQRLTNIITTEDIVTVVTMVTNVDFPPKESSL

COc1cc(N(C)c2ccnc3ccc(C(F)(F)F)cc23)cc(OC)c1OC
% binding [1]: 89%

C=CC(=O)Nc1cc(-n2c(=O)ccc3cnc4ccc(-c5ccc(NS(C)(=O)=O)cc5)cc4c32)ccc1C
% of control ([2]; at 1 µM): 94%
% of control ([2]; at 10 µM): 88%

Cc1cc(F)c(C(=O)Nc2cccc(-c3nncn3C(C)C)n2)cc1-n1cnc(C2CC2)c1
% of control [3]: 100%

O=C(NOC[C@H](O)CO)c1ccc(F)c(F)c1Nc1ccc(I)cc1F
% of control [4]: 100%

Cc1ccc(-c2ccc3c(ccc4sc5c(c43)NC[C@@H](C)NC5=O)n2)cn1
% of inhibition [5]: -14%

CCN(CC)CCCCNc1ncc2cc(-c3cc(OC)cc(OC)c3)c(NC(=O)NC(C)(C)C)nc2n1
% of control [6]: 100%
